Experimental findings from ChEMBL document CHEMBL4033666, “Synthesis and mechanistic evaluation of novel N'-benzylidene-carbohydrazide-1H-pyrazolo[3,4-b]pyridine derivatives as non-anionic antiplatelet agents” (Eur J Med Chem, 2017) are described below.

The structures appear in SMILES notation. Active and inactive are the calls of the source.

Data set [1] concerns Platelet. The data set can be described thus: Antiplatelet activity in human platelet rich plasma assessed as inhibition of ADP-induced platelet aggregation at 100 uM preincubated for 2 mins followed by ADP addition by turbidimetric method relative to control. Format: cell-based.
Data set [2] has as its system Platelet. The data set can be described thus: Antiplatelet activity in human platelet rich plasma assessed as inhibition of epinephrine-induced platelet aggregation at 100 uM preincubated for 2 mins followed by epinephrine addition by turbidimetric method relative to control. Format: cell-based.
Data set [3] deals with Platelet. The data set can be described thus: Antiplatelet activity in human platelet rich plasma assessed as inhibition of arachidonic acid-induced platelet aggregation preincubated for 2 mins followed by arachidonic acid addition by turbidimetric method relative to control. The format is functional, cell-based.
The test system of data set [4] is Platelet. The data set is described as follows: Antiplatelet activity in human platelet rich plasma assessed as inhibition of arachidonic acid-induced platelet aggregation at 100 uM preincubated for 2 mins followed by arachidonic acid addition by turbidimetric method relative to control. Format: functional.
The target of data set [5] is T1, Thromboxane-A synthase (Homo sapiens) (UniProt P24557).
T1 sequence (whole entry): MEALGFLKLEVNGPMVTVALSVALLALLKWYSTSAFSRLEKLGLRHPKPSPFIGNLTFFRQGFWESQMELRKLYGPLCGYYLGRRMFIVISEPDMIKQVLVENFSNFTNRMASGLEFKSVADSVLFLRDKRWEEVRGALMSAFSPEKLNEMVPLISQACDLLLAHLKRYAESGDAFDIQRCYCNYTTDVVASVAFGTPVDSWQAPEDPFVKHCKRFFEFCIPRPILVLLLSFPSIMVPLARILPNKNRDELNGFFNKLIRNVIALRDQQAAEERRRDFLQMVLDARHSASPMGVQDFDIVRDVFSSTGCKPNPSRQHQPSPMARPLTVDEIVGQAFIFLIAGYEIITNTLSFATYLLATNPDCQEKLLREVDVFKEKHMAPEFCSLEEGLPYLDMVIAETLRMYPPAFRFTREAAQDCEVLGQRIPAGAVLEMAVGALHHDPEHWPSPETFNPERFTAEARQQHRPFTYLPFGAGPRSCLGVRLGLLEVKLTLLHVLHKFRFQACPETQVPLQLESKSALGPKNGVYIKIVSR
The data set can be described thus: Inhibition of TXS in human platelet rich plasma assessed as decrease in TXB2 production at 100 uM using arachidonic acid after 5 mins by ELISA.

In data set [6] the test system is Platelet. The data set is described as follows: Antiplatelet activity in human platelet rich plasma assessed as inhibition of collagen-induced platelet aggregation at 100 uM preincubated for 2 mins followed by collagen addition by turbidimetric method relative to control. Format: cell-based.
The test system of data set [7] is Plasma. The data set can be described thus: Change in activated partial thromboplastin time in human plasma at 100 uM incubated for 15 mins at room temperature and 2 mins at 37 degC in presence of CaCl2. The format is ADME, cell-free.
Data set [8] has as its system Plasma. The data set can be described thus: Change in prothrombin time in human plasma at 100 uM incubated for 15 mins at room temperature and 2 mins at 37 degC in presence of calcium thromboplastin. The format is ADME, cell-free.
Data set [9] in a line: Hemolytic activity against human erythrocytes after 3 hrs relative to control. Format: ADME, cell-based, Erythrocyte. As to conditions: read-out: Activity.

Consider `CC(=O)Oc1ccccc1C(=O)O` [ASPIRIN], for which the inhibition at 100 µM in the data set with Platelet [1] worked out at 41.9%; in the data set on Platelet [2], 58.6%; in the data set with Platelet [4], 96.6%; in the data set with Platelet [6] it was 85.3%. For the same compound, the IC50 in the data set on Platelet [3] stood at 37.6 µM. Besides, in data set [5], the inhibition entry is “Active”.

In the case of `Cc1ccc(/C=N/NC(=O)c2cc(C(F)(F)F)nc3c2c(C)nn3-c2ccccc2)cc1`, the inhibition at 100 µM was determined as 0.27% with Platelet [1], 0.71% in the data set with Platelet [2], 0.27% with Platelet [4] and 7.84% in the data set with Platelet [6]. In addition, the Activity result with Plasma [7] and in the data set with Plasma [8] was “Non-Toxic” each time.

For the compound `COc1ccc(/C=N/NC(=O)c2cc(C)nc3c2c(C)nn3-c2ccccc2)cc1`, the inhibition at 100 µM worked out at 2.9% in the data set with Platelet [1], 8.4% in the data set with Platelet [2], 3.43% with Platelet [4] and 15% in the data set on Platelet [6]. Moreover, the Activity entry in the data set with Plasma [7] and in the data set on Plasma [8] was “Non-Toxic” each time.

Consider `Cc1nn(-c2ccccc2)c2nc(C(F)(F)F)cc(C(=O)N/N=C/c3ccccc3)c12`, for which the inhibition at 100 µM in the data set with Platelet [1] worked out at 5.98%; in the data set with Platelet [2], 14.1%; in the data set with Platelet [4], 0.27%; with Platelet [6], 0%. In addition, the Activity entry in the data set on Plasma [7] and in the data set with Plasma [8] was “Non-Toxic” each time.

As to `COc1ccc(/C=N/NC(=O)c2cc(C(F)(F)F)nc3c2c(C)nn3-c2ccccc2)cc1`, the inhibition at 100 µM with Platelet [1] was 0%; with Platelet [2], 0%; in the data set on Platelet [4] it was 2.39%; with Platelet [6], 0%. Also, the Activity entry with Plasma [7] and in the data set on Plasma [8] was “Non-Toxic” each time.

On to `CCOc1ccc(/C=N/NC(=O)c2cc(C(F)(F)F)nc3c2c(C)nn3-c2ccccc2)cc1`, for which the inhibition at 100 µM with Platelet [1] was found to be 5.55%; in the data set with Platelet [2], 13.1%; with Platelet [4], 1.26%; in the data set on Platelet [6], 2%. For the same compound, the Activity entry in the data set with Plasma [7] and in the data set on Plasma [8] was “Non-Toxic” in each case. For the same compound, in [9], the hemolysis at 3 h is 30%.

With `Cc1nn(-c2ccccc2)c2nc(C(F)(F)F)cc(C(=O)N/N=C/c3ccc(F)cc3)c12`, the inhibition at 100 µM stood at 7.95% in the data set with Platelet [1], 0% in the data set with Platelet [2], 0% in the data set on Platelet [4] and 0.3% with Platelet [6]. Also, the Activity entry in the data set with Plasma [7] and in the data set on Plasma [8] was “Non-Toxic” in each case.

Turning to `Cc1nn(-c2ccccc2)c2nc(C(F)(F)F)cc(C(=O)N/N=C/c3ccc(C#N)cc3)c12`, the inhibition at 100 µM in the data set with Platelet [1] came to 4.55%; in the data set on Platelet [2] it was 0%; in the data set with Platelet [4] it was 4.77%; with Platelet [6], 3.59%. In addition, the Activity entry in the data set with Plasma [7] and with Plasma [8] was “Non-Toxic” in each case.

`CCOc1ccc(/C=N/NC(=O)c2cc(C)nc3c2c(C)nn3-c2ccccc2)cc1`: the inhibition at 100 µM was determined as 1.69% in the data set on Platelet [1], 0% in the data set on Platelet [2], 1.26% with Platelet [4] and 0% in the data set with Platelet [6]. Also, the Activity entry with Plasma [7] and in the data set with Plasma [8] was “Non-Toxic” in each case.

As for `Cc1cc(C(=O)N/N=C/c2ccc(C#N)cc2)c2c(C)nn(-c3ccccc3)c2n1`, the inhibition at 100 µM in the data set with Platelet [1] turned out to be 33.6%; in the data set with Platelet [2], 0%; in the data set on Platelet [4], 24.4%; with Platelet [6], 1.68%. The Activity result with Plasma [7] and in the data set with Plasma [8] was “Non-Toxic” in each case.

As to `Cc1nn(-c2ccccc2)c2nc(C(F)(F)F)cc(C(=O)N/N=C/c3ccc(O)cc3)c12`, the inhibition at 100 µM with Platelet [1] stood at 12.5%; in the data set with Platelet [2], 15.9%; in the data set with Platelet [4], 10.4%; with Platelet [6] it was 13.3%. Further, the Activity entry in the data set on Plasma [7] and in the data set on Plasma [8] was “Non-Toxic” in each case. Also, the hemolysis at 3 h in data set [9] was 99%.

Consider `Cc1cc(C(=O)N/N=C/c2ccccc2)c2c(C)nn(-c3ccccc3)c2n1`, for which the inhibition at 100 µM came out at 0% in the data set on Platelet [1], 7% with Platelet [2], 3.96% in the data set with Platelet [4] and 9.6% with Platelet [6]. The Activity result in the data set with Plasma [7] and with Plasma [8] was “Non-Toxic” throughout.

In the case of `Cc1nn(-c2ccccc2)c2nc(C(F)(F)F)cc(C(=O)N/N=C/c3ccc(Cl)cc3)c12`, the inhibition at 100 µM amounted to 10.1% with Platelet [1], 17% with Platelet [2], 6.71% with Platelet [4] and 0% in the data set on Platelet [6]. Moreover, the Activity entry with Plasma [7] and with Plasma [8] was “Non-Toxic” in each case.

With `O=C(O)/C=C/c1ccc(Cn2ccnc2)cc1` [OZAGREL], the IC50 with Platelet [3] turned out to be 53.1 µM. For the same compound, the inhibition entry in data set [5] is “Active”.

In the case of `Cc1nn(-c2ccccc2)c2nc(C(F)(F)F)cc(C(=O)N/N=C/c3ccc(Br)cc3)c12`, the inhibition at 100 µM worked out at 7.46% with Platelet [1], 1.52% in the data set on Platelet [2], 6.18% in the data set with Platelet [4] and 5.37% in the data set on Platelet [6]. The Activity entry in the data set on Plasma [7] and in the data set on Plasma [8] was “Non-Toxic” throughout.

For the compound `Cc1nn(-c2ccccc2)c2nc(C(F)(F)F)cc(C(=O)N/N=C/c3ccc([N+](=O)[O-])cc3)c12`, the inhibition at 100 µM with Platelet [1] was determined as 6.93%; in the data set on Platelet [2], 0%; in the data set with Platelet [4], 0%; in the data set on Platelet [6], 0%. The Activity result with Plasma [7] and in the data set with Plasma [8] was “Non-Toxic” each time.

Broadly, the inhibition is the change of the read-out against control, counted positive when it falls. For orientation: IC50 means the midpoint of a concentration-inhibition curve.
